From ChEMBL document CHEMBL1130683, “Aryl C-glycosides: physiologically stable glycomimetics of sialyl Lewis X” (Bioorg Med Chem Lett, 1998)

Assays:
[1] = target: T1, L-selectin (Homo sapiens, UniProt P14151); test: Inhibitory activity against L-selectin IgG chimeras binding to sLex coating 96 wells using competitive cell-free ELISA assay was determined.
T1 sequence (P14151 whole entry): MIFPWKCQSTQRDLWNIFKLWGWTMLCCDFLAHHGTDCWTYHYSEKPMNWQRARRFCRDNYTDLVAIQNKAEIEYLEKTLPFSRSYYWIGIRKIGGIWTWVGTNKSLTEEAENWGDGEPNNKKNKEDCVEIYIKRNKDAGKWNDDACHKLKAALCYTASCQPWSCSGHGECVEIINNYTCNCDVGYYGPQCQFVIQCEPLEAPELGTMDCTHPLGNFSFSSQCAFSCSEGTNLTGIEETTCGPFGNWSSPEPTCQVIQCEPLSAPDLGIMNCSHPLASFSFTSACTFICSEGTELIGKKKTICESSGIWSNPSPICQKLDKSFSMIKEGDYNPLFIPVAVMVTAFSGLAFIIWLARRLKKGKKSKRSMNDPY

[2] = target: T2, E-selectin (Homo sapiens, UniProt P16581); test: Inhibitory activity against Selectin E IgG chimeras binding to sLex coating 96 wells using competitive cell-free ELISA assay was determined.
T2 sequence (P16581 whole entry): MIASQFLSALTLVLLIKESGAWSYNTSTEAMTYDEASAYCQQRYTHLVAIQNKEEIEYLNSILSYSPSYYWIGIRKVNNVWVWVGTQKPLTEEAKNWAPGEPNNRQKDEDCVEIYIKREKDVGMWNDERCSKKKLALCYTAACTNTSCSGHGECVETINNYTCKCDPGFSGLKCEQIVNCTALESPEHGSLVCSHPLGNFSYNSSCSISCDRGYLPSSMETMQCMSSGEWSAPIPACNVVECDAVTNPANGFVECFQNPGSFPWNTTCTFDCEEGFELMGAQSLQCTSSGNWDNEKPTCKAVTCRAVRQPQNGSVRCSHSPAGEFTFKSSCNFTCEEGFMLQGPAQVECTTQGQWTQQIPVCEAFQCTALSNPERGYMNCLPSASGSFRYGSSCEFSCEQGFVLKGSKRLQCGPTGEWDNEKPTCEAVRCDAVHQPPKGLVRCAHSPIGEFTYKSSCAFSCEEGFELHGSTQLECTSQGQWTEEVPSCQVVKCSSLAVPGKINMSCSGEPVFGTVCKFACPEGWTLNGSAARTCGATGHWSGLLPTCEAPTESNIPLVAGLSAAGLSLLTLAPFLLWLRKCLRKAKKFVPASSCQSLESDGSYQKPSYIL

[3] = target: T3, P-selectin (Homo sapiens, UniProt P16109); test: Inhibitory activity against P-selectin IgG chimeras binding to sLex coating 96 wells using competitive cell-free ELISA assay was determined.
T3 sequence (P16109 whole entry): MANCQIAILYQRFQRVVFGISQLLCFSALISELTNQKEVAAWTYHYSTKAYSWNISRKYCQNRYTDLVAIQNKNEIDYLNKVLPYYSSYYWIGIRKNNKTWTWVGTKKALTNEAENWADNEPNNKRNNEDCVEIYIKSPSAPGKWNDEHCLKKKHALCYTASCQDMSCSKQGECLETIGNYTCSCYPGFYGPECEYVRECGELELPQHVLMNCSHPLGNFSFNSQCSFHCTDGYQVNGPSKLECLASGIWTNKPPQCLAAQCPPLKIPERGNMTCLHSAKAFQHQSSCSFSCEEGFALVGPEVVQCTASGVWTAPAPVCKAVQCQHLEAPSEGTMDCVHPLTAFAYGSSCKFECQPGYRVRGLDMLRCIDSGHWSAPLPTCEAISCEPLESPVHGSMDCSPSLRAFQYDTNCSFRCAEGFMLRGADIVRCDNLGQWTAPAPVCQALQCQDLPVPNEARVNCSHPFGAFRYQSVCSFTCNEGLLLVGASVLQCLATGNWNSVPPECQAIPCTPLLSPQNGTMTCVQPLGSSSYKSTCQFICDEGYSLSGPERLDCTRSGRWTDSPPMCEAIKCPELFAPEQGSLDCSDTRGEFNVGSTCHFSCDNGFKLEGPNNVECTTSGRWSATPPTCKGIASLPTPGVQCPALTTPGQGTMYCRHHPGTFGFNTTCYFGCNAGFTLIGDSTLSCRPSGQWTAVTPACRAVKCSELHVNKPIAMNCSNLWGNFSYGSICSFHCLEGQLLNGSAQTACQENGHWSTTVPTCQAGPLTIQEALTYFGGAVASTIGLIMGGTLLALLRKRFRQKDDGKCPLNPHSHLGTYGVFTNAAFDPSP

| Compound | IC50 [1] | IC50 [2] | IC50 [3] |
| --- | --- | --- | --- |
| COc1ccc(CCCC(=O)O)cc1C1OC(C)C(O)C(O)C1O (stereo unspecified) | 170 µM | > 1000 µM | 5 µM |
| COc1ccc(CC(=O)O)cc1C1OC(C)C(O)C(O)C1O (stereo unspecified) | 3 µM | > 1000 µM | 1 µM |
| COc1ccc(C2(C(=O)O)CCCCC2)cc1C1OCC(O)C(O)C1O (stereo unspecified) | 11 µM | > 1000 µM | 8 µM |
| COc1ccc(C2(C(=O)O)CCCCC2)cc1[C@H]1O[C@@H](C)[C@@H](O)[C@H](O)[C@@H]1O | 106 µM | > 1000 µM | 7 µM |

Further lines, results first:

| IC50 [1] | IC50 [2] | IC50 [3] | Compound |
| --- | --- | --- | --- |
| 35 µM | > 1000 µM | 22 µM | COc1ccc(C2(C(=O)O)CCCCC2)cc1[C@H]1O[C@@H](C)[C@H](O)[C@H](O)[C@@H]1O |
| 114 µM | > 1000 µM | 40 µM | COc1cc(CC(=O)O)c(C2OC(C)C(O)C(O)C2O)c(OC)c1OC (stereo unspecified) |
| 1 µM | > 1000 µM | 3 µM | COc1ccc(C2(C(=O)O)CCCCC2)cc1C1OC(CO)C(O)C(O)C1O (stereo unspecified) |
